Measurements as given in BindingDB's records for doi:10.1016/s0960-894x(98)00169-3 (Merck Research Laboratories, 1999).

Molecular target: Beta-2 adrenergic receptor (Homo sapiens, UniProt P07550)
Experiment: Compound was tested for agonist activity against cloned human beta-2 adrenergic receptor at a concentration of 1000 nM

Sequence of Beta-2 adrenergic receptor (P07550 whole entry): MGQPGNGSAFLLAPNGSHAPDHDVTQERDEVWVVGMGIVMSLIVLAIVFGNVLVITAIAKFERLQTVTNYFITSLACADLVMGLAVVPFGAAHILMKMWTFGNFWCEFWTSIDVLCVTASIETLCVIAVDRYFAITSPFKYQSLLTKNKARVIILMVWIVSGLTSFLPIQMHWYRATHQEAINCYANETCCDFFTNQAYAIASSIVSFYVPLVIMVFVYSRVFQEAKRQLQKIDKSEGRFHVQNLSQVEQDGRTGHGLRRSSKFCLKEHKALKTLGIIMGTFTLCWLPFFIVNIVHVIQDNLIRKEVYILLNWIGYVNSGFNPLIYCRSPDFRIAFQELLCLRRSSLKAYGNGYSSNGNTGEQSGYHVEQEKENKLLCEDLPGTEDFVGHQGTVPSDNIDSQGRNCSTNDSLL

## COc1ccc(CC[C@H](C)NC[C@@H](O)COc2ccc(O)cc2)cc1 [4-{(R)-2-Hydroxy-3-[(S)-3-(4-methoxy-phenyl)-1-methyl-propylamino]-propoxy}-phenol]
  EC50: < 0.1 nM
